Drawing on ChEMBL document CHEMBL4196231, “Peptidomimetics for Targeting Protein-Protein Interactions between DOT1L and MLL Oncofusion Proteins AF9 and ENL” (ACS Med Chem Lett, 2018), this text covers IC50, Ki and Kd for ten molecules.

Usually IC50 stands for the concentration needed to halve the response being measured. In general, Ki refers to a dissociation constant, usually derived from enzyme kinetics or from competition with a known ligand. By Kd is commonly meant a measure of binding affinity in units of concentration.

For assay [1], the target named is T1, Protein AF-9 (Homo sapiens, UniProt P42568).
T1 sequence (P42568 whole entry): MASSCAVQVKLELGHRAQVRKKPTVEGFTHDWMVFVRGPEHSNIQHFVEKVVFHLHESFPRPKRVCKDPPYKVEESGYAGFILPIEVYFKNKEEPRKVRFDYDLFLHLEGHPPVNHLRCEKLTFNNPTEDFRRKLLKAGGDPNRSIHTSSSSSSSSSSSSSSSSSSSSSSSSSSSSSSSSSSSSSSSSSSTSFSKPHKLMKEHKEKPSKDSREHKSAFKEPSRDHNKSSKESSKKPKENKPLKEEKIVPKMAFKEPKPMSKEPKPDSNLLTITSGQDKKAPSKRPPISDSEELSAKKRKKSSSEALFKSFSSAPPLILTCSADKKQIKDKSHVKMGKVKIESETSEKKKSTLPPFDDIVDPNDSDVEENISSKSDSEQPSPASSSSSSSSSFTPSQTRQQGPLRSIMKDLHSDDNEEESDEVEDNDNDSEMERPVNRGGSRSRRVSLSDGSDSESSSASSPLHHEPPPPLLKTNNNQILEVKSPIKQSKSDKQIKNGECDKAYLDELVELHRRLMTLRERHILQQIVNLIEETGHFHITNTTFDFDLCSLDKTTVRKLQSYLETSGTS
In words: Displacement of N-Flu-DOT1L from MBP-tagged AF9 (unknown origin) (487 to 568 residues) expressed in Escherichia coli BL21(DE3) measured after 3 hrs by fluorescence polarization assay. For orientation: Polarisation of emitted light reports the rotation of a fluorescent probe.

In assay [2] the target is T2, Protein ENL (Homo sapiens, UniProt Q03111).
T2 sequence (Q03111 whole entry): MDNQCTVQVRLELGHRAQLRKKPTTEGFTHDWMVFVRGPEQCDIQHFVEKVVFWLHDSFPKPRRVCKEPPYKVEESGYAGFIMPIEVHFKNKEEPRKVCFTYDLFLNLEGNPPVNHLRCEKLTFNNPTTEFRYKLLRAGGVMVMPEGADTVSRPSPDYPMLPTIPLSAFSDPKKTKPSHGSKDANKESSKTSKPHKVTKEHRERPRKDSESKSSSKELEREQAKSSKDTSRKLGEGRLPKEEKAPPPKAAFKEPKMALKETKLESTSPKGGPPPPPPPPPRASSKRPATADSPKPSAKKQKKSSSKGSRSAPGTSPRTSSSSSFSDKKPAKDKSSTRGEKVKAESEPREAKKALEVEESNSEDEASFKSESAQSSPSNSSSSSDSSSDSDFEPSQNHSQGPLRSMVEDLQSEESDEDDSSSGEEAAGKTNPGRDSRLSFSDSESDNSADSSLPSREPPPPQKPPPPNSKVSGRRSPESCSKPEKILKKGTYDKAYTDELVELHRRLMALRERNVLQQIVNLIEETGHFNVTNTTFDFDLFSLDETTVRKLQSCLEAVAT
In words: Displacement of N-Flu-DOT1L from MBP-tagged ENL (unknown origin) (489 to 559 residues) expressed in Escherichia coli BL21(DE3) measured after 3 hrs by fluorescence polarization assay.

The target in assay [3] is T1, Protein AF-9. In words: Binding affinity to MBP-tagged AF9 (unknown origin) (487 to 568 residues) expressed in Escherichia coli BL21(DE3) by Bio-layer interferometry. (In general: Biolayer interferometry detects binding as a change in optical thickness at a sensor tip.)
In assay [4] the target is T2, Protein ENL. In words: Binding affinity to MBP-tagged ENL (unknown origin) (489 to 559 residues) expressed in Escherichia coli BL21(DE3) by Bio-layer interferometry.

Square brackets hold non-standard residues; d marks the D form. Peptide text beside a SMILES is read from it. * marks the point of attachment. Biotinyl(3aR,4S,6aS) = O=C1N[C@H]2[C@H](CCCCC(=O)*)SC[C@H]2N1; X3 = c1ccc(-c2cn(CC3CCCCC3)c([C@@H]3CCCN3*)n2)cc1; X4 = Cn1cc(-c2ccccc2)nc1[C@@H]1CCCN1*; Ala(cPent) = N[C@@H](CC1CCCC1)C(=O)O; Ala(cPr) = N[C@@H](CC1CC1)C(=O)O; Pentanoyl(4-Me) = CC(C)CCC(=O)*; Cba = N[C@@H](CC1CCC1)C(=O)O; Dap = NC[C@H](N)C(=O)O; Bz = O=C(c1ccccc1)*; Ahx = NCCCCCC(=O)O

With `CC(=O)N[C@@H](CC(C)C)C(=O)N1CCC[C@H]1C(=O)N[C@H](C(=O)N[C@@H](CN)C(=O)N[C@@H](CC1CCCC1)C(=O)N1CCC[C@H]1c1nc(-c2ccccc2)cn1CC1CCCCC1)C(C)C` (Ac-LPV[Dap][Ala(cPent)]-X3), at Protein AF-9 [1], the half-inhibitory concentration (IC50) was determined as 82 nM and the Ki is 13 nM. Moreover, at Protein ENL [2], the IC50 was 427 nM and the Ki is 101 nM.

Turning to `CC(=O)N[C@@H](CC(C)C)C(=O)N1CCC[C@H]1C(=O)N[C@H](C(=O)N[C@@H](CN)C(=O)N[C@@H](CC1CCCC1)C(=O)N1CCC[C@H]1c1nc(-c2ccccc2)cn1C)C(C)C` (Ac-LPV[Dap][Ala(cPent)]-X4), at Protein AF-9 [1], the IC50 was found to be 372 nM and the Ki is 57 nM. On Protein ENL [2], the IC50 was 1770 nM and the Ki is 417 nM.

At Protein AF-9 [1], `CC[C@H](C)[C@H](NC(=O)[C@H](CO)NC(=O)[C@H](CC1CC1)NC(=O)[C@@H]1CCCN1C(=O)[C@H](CC(C)C)NC(C)=O)C(=O)N1CCC[C@H]1C(=O)N[C@@H](CC(C)C)C(=O)N(C)C` (Ac-LP[Ala(cPr)]SIPL-NMe2) returned an IC50 of 4290 nM and a Ki of 780 nM. Moreover, at Protein ENL [2], the IC50 stood at 14600 nM and the Ki worked out at 4890 nM.

`CC[C@H](C)[C@H](NC(=O)[C@H](CO)NC(=O)[C@H](CC1CCC1)NC(=O)[C@@H]1CCCN1C(=O)[C@H](CC(C)C)NC(C)=O)C(=O)N1CCC[C@H]1C(=O)N[C@@H](CC(C)C)C(=O)N(C)C` (Ac-LP[Cba]SIPL-NMe2): the IC50 at Protein AF-9 [1] worked out at 7230 nM; on Protein ENL [2], 23600 nM. The Ki was determined as 1310 nM on Protein AF-9 [1] and 8040 nM at Protein ENL [2].

In the case of `CC(C)[C@H](NC(=O)[C@@H]1CCCN1C(=O)c1ccccc1)C(=O)N[C@@H](CN)C(=O)N[C@@H](CC1CCCC1)C(=O)N1CCC[C@H]1c1nc(-c2ccccc2)cn1CC1CCCCC1` (Bz-PV[Dap][Ala(cPent)]-X3), on Protein AF-9 [1], the IC50 was found to be 57 nM and the affinity corresponds to a Ki of 9 nM. At Protein ENL [2], the IC50 was determined as 504 nM and the Ki turned out to be 119 nM.

As for `CC(C)C[C@H](NC(=O)[C@@H]1CCCN1C(=O)[C@H](CC1CCCC1)NC(=O)[C@H](CN)NC(=O)[C@@H](NC(=O)[C@@H]1CCCN1C(=O)[C@H](CC(C)C)NC(=O)CCCCCNC(=O)CCCC[C@@H]1SC[C@H]2NC(=O)N[C@@H]12)C(C)C)C(=O)N(C)C` ({Biotinyl(3aR,4S,6aS)-Ahx}-LPV[Dap][Ala(cPent)]PL-NMe2), the Ki on Protein AF-9 [1] is 10 nM; on Protein ENL [2] it was 63 nM. The Kd on Protein AF-9 [3] stood at 15 nM; on Protein ENL [4], 57 nM.

On Protein AF-9 [1], `CC(C)CCC(=O)N1CCC[C@H]1C(=O)N[C@H](C(=O)N[C@@H](CN)C(=O)N[C@@H](CC1CCCC1)C(=O)N1CCC[C@H]1c1nc(-c2ccccc2)cn1CC1CCCCC1)C(C)C` ({Pentanoyl(4-Me)}-PV[Dap][Ala(cPent)]-X3) registered an IC50 of 149 nM and a Ki of 23 nM. Moreover, on Protein ENL [2], the IC50 came to 237 nM and affinity was put at a Ki of 56 nM.

Regarding Ac-LPISIPL-NH2, the figures for the IC50 on Protein AF-9 [1] and on Protein ENL [2] were 1040 nM and 10300 nM, respectively. Besides, the results for the Ki on Protein AF-9 [1] and at Protein ENL [2] were 160 nM and 3370 nM, respectively.

In the case of Ac-LPISIPLSTV-NH2, the values for the IC50 on Protein AF-9 [1] and on Protein ENL [2] were 140 nM and 630 nM, respectively. Besides, the inhibition constant (Ki) stood at 20 nM at Protein AF-9 [1] and 150 nM at Protein ENL [2].

On Protein AF-9 [1], Ac-LPVSIPL-NH2 gave an IC50 of 1020 nM and a Ki of 160 nM. At Protein ENL [2], this molecule gave a half-maximal inhibitory concentration (IC50) of 4790 nM and a Ki of 1430 nM.
